{"source": "patent EP4310093A1", "about": "“AMINO ACID DERIVATIVE, PREPARATION METHOD THEREFOR, AND PHARMACEUTICAL COMPOSITION FOR TREATING HEPATITIS, COMPRISING SAME” (priority 2021, dated 2022)", "key": {"[1]": {"tested_on": "HBV", "assay": "Inhibition of intracellular HBV virus invasion, HBeAg ELISA analysis", "format": "cell-based", "settings": "20 µM, HepG2-NTCP cell line, HBV 3000 Geq/cell, O.D. at 450 nm", "protocol": "(§1) In order to evaluate the ability to inhibit intracellular HBV virus entry (invasion), Enzyme-linked immunosorbent assay (ELISA) analysis to measure HBeAg, which is associated with high infectivity as an antigen in the HBV virus core portion, and Southern blot analysis to measure DNA of HBV were performed.\n(§2) Specifically, the HepG2-NTCP cell line was cultured on a 6-well plate, incubation was performed overnight, HBV inhibitors were treated at a concentration of 20 µM, and the positive control Myrcludex-B (MyrB) was treated at a concentration of 200 nM, followed by culture for 24 hours. After HBV infection into the cells to make HBV 3000 genome equivalent per ml/cell (Geq/cell), the cell culture medium was replaced (medium changing, MC) a day after the viral infection to remove the virus unattached to cell membranes. In order to measure an amount of virus that entered the cell, medium changing (MC) was performed once more 4 days after viral infection. 2 days after replacement, HBeAg ELISA analysis was performed using a supernatant, and Southern blot analysis was performed with cell pellets.\nHBeAg ELISA analysis was performed using an HBeAg ELISA kit (sanbio, Wantai HBeAg ELISA, cat#WB-2496) for the supernatant obtained by the method in Experimental Example 4-1.\nFirst, a negative control group (Mock), positive control group (MyrB), and samples according to the present disclosure were loaded, by 50 µl each to be triplicate, onto a 96-well plate coated with capture Ab. In this case, Example 1 (LCA-ILE), Example 44 (LCA-Val), Example 52 (LCA-Tyr), Example 51 (LCA-Ser), Example 55 (LCA-Glu), Example 2 (UDCA-Ile), Example 3 (UDCA-Val), Example 25 (LCA-Val-Trp), Example 10 (DCA-Ile), Comparative Example 1 (LCA), and Comparative Example 2 (UDCA) were used as the sample.\nThe HRP-conjugated detection antibody was loaded into each well by 50 µl, followed by a reaction at 37°C for 30 minutes. Washing buffer (1X PBS, 0.5% Tween20) was added by 200 µl, and washing was performed 5 times. 50 µl of chromogen solution A and 50 µl of chromogen solution B were added to each well, and a reaction was carried out in the darkness at 37°C for 15 minutes. The stop solution was added to each well by 50 µl each to stop the reaction, and the amount of HBeAg was measured by measuring the absorbance (optical density, O.D.) level in the 450 nm wavelength band."}, "[2]": {"tested_on": "HBV", "assay": "Inhibition of intracellular HBV virus invasion, Southern blot analysis", "format": "cell-based", "settings": "for amount of HBeAg DNA detected compared to the negative control group (Mock): 20 µM, HepG2-NTCP cell line, HBV 3000 Geq/cell; for activity at 20 µM: Hepatitis B virus, read-out: relative replication rate of quantified HBeAg DNA to the negative control group (Mock), 20 µM, HepG2-NTCP cell line, HBV 3000 Geq/cell", "protocol": "as §1, §2\nFor the cell pellet obtained by the method of Experimental Example 4-1, Southern blot analysis for measurement of […] DNA was performed using Example 1 (LCA-Ile), Example 44 (LCA-Val), Example 52 (LCA-Tyr), Example 51 (LCA-Ser), Example 55 (LCA-Glu), Example 2 (UDCA-Ile), Example 3 (UDCA-Val), Example 25 (LCA-Val-Trp), Example 10 (DCA-Ile), Comparative Example 1 (LCA), and Comparative Example 2 (UDCA).\nFirst, the cell pellets were pipetted with 100 µl of HEPES lysis buffer (10 mM HEPES, 100 mM NaCl, 1 mM EDTA, 1% NP-40), placed on ice for 20 minutes, and then centrifuged with a centrifuge under the conditions at 4°C and 13000 rpm. After transferring the supernatant only to the new microtube, 4.5 µl of nuclease buffer I (10 mM CaCl2, 12 mM MgCl2, DNase 10 units) was added to carry out a reaction at 37°C for 2 hours, and 40 µl of 26% PEG solution was added, followed by a reaction on ice for 1 hour. After centrifuging with the centrifuge at 4°C and 13000 rpm for 30 minutes, and the supernatant was removed cleanly. After releasing the pellets with 100 µl of nuclease buffer II (10 mM Tris, 8 mM CaCl2, 6mM MgCl2), 287.5 µl of 0.5% SDS buffer (25 mM Tris, 10 mM EDTA, 0.5% SDS, 100 mM NaCl) was added, and 12.5 µl of 20 mg/ml proteinase K was added, followed by a reaction at 37°C for 2 hours. 400 µl of phenol-chloroform-isoamyl alcohol was added, centrifugation was performed at room temperature at 13000 rpm after voltexing, the supernatant was transferred to a new tube, 40 µl of 3 M NaOAc was added, and 800 µl of 100% ethanol was added for inverting, followed by a reaction overnight at -20°C. After performing centrifugation at 4°C and 13000 rpm for 30 minutes, 800 µl of 70% ethanol was added and mixed to the pellet obtained by removing the supernatant, centrifugation was performed at 4°C and 13000 rpm for 10 minutes, and then the supernatant was discarded. The ethanol was dried for 5 minutes to leave only the HBV DNA pellets, and then the pellets were dissolved again in 15 µl of TE buffer (10 mM Tris, 1 mM EDTA). HBV DNA samples were loaded in 1% agarose gel, and electrophoresis was performed. It was then immersed in denature buffer (0.25 N NaOH, 1 M NaCl) for 30 minutes to denature dsDNA of HBV into ssDNA. The DNA in the gel was transferred to a Nylon membrane using a transfer buffer (0.4 M NaOH), the membrane was soaked with a 2X SSC buffer (sigma, cat# 85639) for neutralization, followed by drying in air. The membrane was immersed in a church buffer (10% BSA, 0.5 M EDTA, 1 M NaPi, 20% SDS), and the radioisotopes were hybridized using a Mega prime kit (GE healthcare, RPN1607). After washing three times with washing buffer (2X SSC, 0.1% SDS), measurement was performed using radioisotope measurement equipment, and a relative replication rate (%) to the negative control group (Mock) was calculated and shown."}}, "data": [{"compound": "CC[C@@H](C)[C@H](NC(=O)CC[C@@H](C)[C@H]1CC[C@H]2[C@@H]3[C@@H](O)C[C@@H]4C[C@H](O)CC[C@]4(C)[C@H]3CC[C@]12C)C(=O)O", "note": "[Example 2, (2S,3R)-2-((R)-4-((3R,5S,7S,8R,9S,10S,13R,14S,17R)-3,7-dihydroxy-10,13-dimethyl-hexadecahydro-1H-cyclopenta[a]phenanthren-17-yl)pentanamido)-3-methylpentanoic acid]", "values": [{"measurement": "HBeAg absorbance level compared with Comparative Example 1 (LCA) and Comparative Example 2 (UDCA)", "setting": "[1]", "result": "lower"}, {"measurement": "HBeAg absorbance level compared with the negative control group (Mock)", "setting": "[1]", "result": "relatively lower"}, {"measurement": "amount of HBeAg DNA detected compared to the negative control group (Mock)", "setting": "[2]", "result": "relatively less amount"}, {"measurement": "activity at 20 µM", "setting": "[2]", "result": "< 80", "unit": "%"}]}, {"compound": "CC(C)[C@H](NC(=O)CC[C@@H](C)[C@H]1CC[C@H]2[C@@H]3[C@@H](O)C[C@@H]4C[C@H](O)CC[C@]4(C)[C@H]3CC[C@]12C)C(=O)O", "note": "[Example 3, (S)-2-((R)-4-((3R,5S,7S,8R,9S,10S,13R,14S,17R)-3,7-dihydroxy-10,13-dimethyl-hexadecahydro-1H-cyclopenta[a]phenanthren-17-yl)pentanamido)-3-methylbutanoic acid]", "values": [{"measurement": "HBeAg absorbance level compared with Comparative Example 1 (LCA) and Comparative Example 2 (UDCA)", "setting": "[1]", "result": "lower"}, {"measurement": "HBeAg absorbance level compared with the negative control group (Mock)", "setting": "[1]", "result": "relatively lower"}, {"measurement": "amount of HBeAg DNA detected compared to the negative control group (Mock)", "setting": "[2]", "result": "relatively less amount"}, {"measurement": "activity at 20 µM", "setting": "[2]", "result": "< 80", "unit": "%"}]}, {"compound": "CC[C@@H](C)[C@H](NC(=O)CC[C@@H](C)[C@H]1CC[C@H]2[C@@H]3CC[C@@H]4C[C@H](O)CC[C@]4(C)[C@H]3C[C@H](O)[C@]12C)C(=O)O", "note": "[Example 10, (2S,3R)-2-((R)-4-((3R,5R,8R,9S,10S,12S,13R,14S,17R)-3,12-dihydroxy-10,13-dimethyl-hexadecahydro-1H-cyclopenta[a]phenanthren-17-yl)pentanamido)-3-methylpentanoic acid]", "values": [{"measurement": "HBeAg absorbance level compared with Comparative Example 1 (LCA) and Comparative Example 2 (UDCA)", "setting": "[1]", "result": "lower"}, {"measurement": "HBeAg absorbance level compared with the negative control group (Mock)", "setting": "[1]", "result": "relatively lower"}, {"measurement": "amount of HBeAg DNA detected compared to the negative control group (Mock)", "setting": "[2]", "result": "relatively less amount"}, {"measurement": "activity at 20 µM", "setting": "[2]", "result": "< 80", "unit": "%"}]}, {"compound": "CC(C)[C@H](NC(=O)CC[C@@H](C)[C@H]1CC[C@H]2[C@@H]3CC[C@@H]4C[C@H](O)CC[C@]4(C)[C@H]3CC[C@]12C)C(=O)N[C@@H](Cc1c[nH]c2ccccc12)C(=O)O", "note": "[Example 25, (S)-2-((S)-2-((R)-4-((3R,5R,8R,9S,10S,13R,14S,17R)-3-hydroxy-10,13-dimethyl-hexadecahydro-1H-cyclopenta[a]phenanthren-17-yl)pentanamido)-3-methylbutanamido)-3-(1H-indol-3-yl)propanoic acid]", "values": [{"measurement": "amount of HBeAg DNA detected compared to the negative control group (Mock)", "setting": "[2]", "result": "relatively less amount"}]}, {"compound": "CC(C)[C@H](NC(=O)CC[C@@H](C)[C@H]1CC[C@H]2[C@@H]3CC[C@@H]4C[C@H](O)CC[C@]4(C)[C@H]3CC[C@]12C)C(=O)O", "note": "[Example 44, (S)-2-((R)-4-((3R,5R,8R,9S,10S,13R,14S,17R)-3-hydroxy-10,13-dimethyl-hexadecahydro-1H-cyclopenta[a]phenanthren-17-yl)pentanamido)-3-methylbutanoic acid]", "values": [{"measurement": "HBeAg absorbance level compared with Comparative Example 1 (LCA) and Comparative Example 2 (UDCA)", "setting": "[1]", "result": "lower"}, {"measurement": "HBeAg absorbance level compared with the negative control group (Mock)", "setting": "[1]", "result": "relatively lower"}, {"measurement": "amount of HBeAg DNA detected compared to the negative control group (Mock)", "setting": "[2]", "result": "relatively less amount"}, {"measurement": "activity at 20 µM", "setting": "[2]", "result": "< 80", "unit": "%"}]}, {"compound": "C[C@H](CCC(=O)N[C@@H](CO)C(=O)O)[C@H]1CC[C@H]2[C@@H]3CC[C@@H]4C[C@H](O)CC[C@]4(C)[C@H]3CC[C@]12C", "note": "[Example 51, (S)-3-hydroxy-2-((R)-4-((3R,5R,8R,9S,10S,13R,14S,17R)-3-hydroxy-10,13-dimethyl-hexadecahydro-1H-cyclopenta[a]phenanthren-17-yl)pentanamido)propanoic acid]", "values": [{"measurement": "HBeAg absorbance level compared with the negative control group (Mock)", "setting": "[1]", "result": "relatively lower"}]}, {"compound": "C[C@H](CCC(=O)N[C@@H](Cc1ccc(O)cc1)C(=O)O)[C@H]1CC[C@H]2[C@@H]3CC[C@@H]4C[C@H](O)CC[C@]4(C)[C@H]3CC[C@]12C", "note": "[Example 52, (S)-2-((R)-4-((3R,5R,8R,9S,10S,13R,14S,17R)-3-hydroxy-10,13-dimethyl-hexadecahydro-1H-cyclopenta[a]phenanthren-17-yl)pentanamido)-3-(4-hydroxyphenyl)propanoic acid]", "values": [{"measurement": "amount of HBeAg DNA detected compared to the negative control group (Mock)", "setting": "[2]", "result": "relatively less amount"}, {"measurement": "activity at 20 µM", "setting": "[2]", "result": "< 80", "unit": "%"}]}, {"compound": "C[C@H](CCC(=O)N[C@@H](CCC(=O)O)C(=O)O)[C@H]1CC[C@H]2[C@@H]3CC[C@@H]4C[C@H](O)CC[C@]4(C)[C@H]3CC[C@]12C", "note": "[Example 55, (S)-2-((R)-4-((3R,5R,8R,9S,10S,13R,14S,17R)-3-hydroxy-10,13-dimethyl-hexadecahydro-1H-cyclopenta[a]phenanthren-17-yl)pentanamido)pentanedioic acid]", "values": [{"measurement": "amount of HBeAg DNA detected compared to the negative control group (Mock)", "setting": "[2]", "result": "relatively less amount"}]}]}
